Assay results taken from the supplement of paper PMC10627819.

Legend:
[1] = tested on: S. pneumoniae D39V; assay: fitness (endpoint OD595 vs no drug) (fraction); higher = more growth
Method in brief: (§1)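 Fitness is computed from the optical density at which cultures reach stationary phase, divided by the robust mean of no-drug control wells. Any value above 1 is set to 1. Cultures started at OD595 0.01 in 384-well plates with TSB, LB Lennox or CY at 37 °C, and OD595 was read every 30 min for 14 h against a first-reading background.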

[2] = tested on: S. aureus Newman; assay: as above
Method in brief: as §1

[3] = tested on: S. aureus DSM 20231; assay: as above
Method in brief: as §1

[4] = tested on: B. subtilis 168; assay: as above
Method in brief: as §1

[5] = tested on: S. pneumoniae D39V; assay: Bliss interaction score (quartile over a dose matrix) (fitness difference); higher = more antagonism (negative = synergy)
Method in brief: (§2)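 Each plate was normalised to the robust mean of its own no-drug wells, using OD595 at entry into stationary phase, with values capped at 1. This normalised growth is the fitness value. The Bliss score is the difference between observed and product-expected fitness, with single-drug fitness inferred from the combination data and quartiles taken over technical, biological and donor/recipient replicates.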

[6] = tested on: S. aureus Newman; assay: as above
Method in brief: as §2

[7] = tested on: S. aureus DSM 20231; assay: as above
Method in brief: as §2

[8] = tested on: B. subtilis 168; assay: as above
Method in brief: as §2
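Throughout, for Bliss interaction score (quartile over a dose matrix): first quartile when negative (synergy) and third quartile when positive (antagonism).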

CCCCCCCCCC(=O)N[C@@H](Cc1c[nH]c2ccccc12)C(=O)N[C@H](CC(N)=O)C(=O)N[C@@H](CC(=O)O)C(=O)N[C@@H]1C(=O)NCC(=O)N[C@@H](CCCN)C(=O)N[C@@H](CC(=O)O)C(=O)N[C@H](C)C(=O)N[C@@H](CC(=O)O)C(=O)NCC(=O)N[C@H](CO)C(=O)N[C@@H]([C@H](C)CC(=O)O)C(=O)N[C@@H](CC(=O)c2ccccc2N)C(=O)O[C@@H]1C [Daptomycin] + COc1ccc(C[C@H](N)C(=O)N[C@H]2[C@@H](O)[C@H](n3cnc4c(N(C)C)ncnc43)O[C@@H]2CO)cc1 [Puromycin]
fitness
Conditions	first compound 0.125 µg/mL	first compound 0.25 µg/mL	first compound 0.5 µg/mL	first compound 1 µg/mL	first compound 2 µg/mL	first compound 4 µg/mL
[1], partner 1 µg/mL	–	–	–	0.939	0.969	0.922
[1], partner 2 µg/mL	–	–	–	0.892	0.876	0.909
[1], partner 4 µg/mL	–	–	–	0.32	–	–
[2], partner 0.39 µg/mL	0.998	1	0.997	–	–	–
[2], partner 0.78 µg/mL	0.992	0.989	0.995	–	–	–
[2], partner 1.56 µg/mL	≥ 1	0.983	≥ 1	–	–	–
[3], partner 0.39 µg/mL	–	–	0.993	≥ 1	≥ 1	–
[3], partner 0.78 µg/mL	–	–	≥ 1	0.977	≥ 1	–
[3], partner 1.56 µg/mL	0.953	≥ 1	≥ 1	0.989	0.957	–
[4], partner 0.39 µg/mL	0.937	0.932	0.894	–	–	–
[4], partner 0.78 µg/mL	0.912	0.91	0.864	–	–	–
[4], partner 1.56 µg/mL	0.906	0.916	0.841	–	–	–

fitness, one replicate
Conditions	partner 0.39 µg/mL	partner 0.78 µg/mL	partner 1.56 µg/mL	partner 3.12 µg/mL	partner 6.24 µg/mL
[3], first compound 0.125 µg/mL	0.935	≥ 1	–	0.968	0.865
[3], first compound 0.25 µg/mL	≥ 1	≥ 1	–	0.932	0.81
[3], first compound 0.5 µg/mL	–	–	–	0.962	0.762
[4], first compound 1 µg/mL	0.719	0.737	0.749	–	–

Conditions	Bliss interaction score
[5]	-0.0975
[6]	0.0477
[7]	0.0803
[8]	0.0496

CCCCCCCCCC(=O)N[C@@H](Cc1c[nH]c2ccccc12)C(=O)N[C@H](CC(N)=O)C(=O)N[C@@H](CC(=O)O)C(=O)N[C@@H]1C(=O)NCC(=O)N[C@@H](CCCN)C(=O)N[C@@H](CC(=O)O)C(=O)N[C@H](C)C(=O)N[C@@H](CC(=O)O)C(=O)NCC(=O)N[C@H](CO)C(=O)N[C@@H]([C@H](C)CC(=O)O)C(=O)N[C@@H](CC(=O)c2ccccc2N)C(=O)O[C@@H]1C [Daptomycin] + Cc1ncc([N+](=O)[O-])n1CCO [Metronidazole]
fitness
Conditions	partner 0.625 µg/mL	partner 1.073 µg/mL	partner 1.25 µg/mL	partner 2.145 µg/mL	partner 2.5 µg/mL	partner 4.29 µg/mL	partner 5 µg/mL
[1], first compound 1 µg/mL	–	0.846	0.977	0.786	≥ 1	0.777	0.993
[1], first compound 2 µg/mL	–	0.9	0.985	0.876	≥ 1	0.87	≥ 1
[1], first compound 4 µg/mL	–	0.949	0.93	0.888	0.97	0.928	0.976
[2], first compound 0.125 µg/mL	0.935	–	≥ 1	–	0.982	–	–
[2], first compound 0.25 µg/mL	0.951	–	≥ 1	–	0.994	–	–
[2], first compound 0.5 µg/mL	≥ 1	–	≥ 1	–	0.975	–	–
[3], first compound 0.125 µg/mL	0.924	–	≥ 1	–	0.983	–	–
[3], first compound 0.25 µg/mL	0.932	–	≥ 1	–	≥ 1	–	–
[3], first compound 0.5 µg/mL	≥ 1	–	≥ 1	–	≥ 1	–	–
[3], first compound 1 µg/mL	≥ 1	–	≥ 1	–	≥ 1	–	–
[3], first compound 2 µg/mL	≥ 1	–	≥ 1	–	≥ 1	–	–
[4], first compound 0.125 µg/mL	0.942	–	0.892	–	0.93	–	–
[4], first compound 0.25 µg/mL	0.899	–	0.966	–	0.944	–	–
[4], first compound 0.5 µg/mL	0.935	–	0.904	–	0.874	–	–

fitness, one replicate
Conditions	partner 0.625 µg/mL	partner 0.781 µg/mL	partner 1.25 µg/mL	partner 1.562 µg/mL	partner 2.5 µg/mL	partner 3.124 µg/mL
[2], first compound 0.125 µg/mL	–	≥ 1	–	≥ 1	–	≥ 1
[2], first compound 0.25 µg/mL	–	≥ 1	–	≥ 1	–	≥ 1
[2], first compound 0.5 µg/mL	–	≥ 1	–	≥ 1	–	≥ 1
[4], first compound 1 µg/mL	0.736	–	0.806	–	0.754	–

Conditions	Bliss interaction score
[5]	0.0723
[6]	0.0422
[7]	0.0276
[8]	-0.0566

CCCCCCCCCC(=O)N[C@@H](Cc1c[nH]c2ccccc12)C(=O)N[C@H](CC(N)=O)C(=O)N[C@@H](CC(=O)O)C(=O)N[C@@H]1C(=O)NCC(=O)N[C@@H](CCCN)C(=O)N[C@@H](CC(=O)O)C(=O)N[C@H](C)C(=O)N[C@@H](CC(=O)O)C(=O)NCC(=O)N[C@H](CO)C(=O)N[C@@H]([C@H](C)CC(=O)O)C(=O)N[C@@H](CC(=O)c2ccccc2N)C(=O)O[C@@H]1C [Daptomycin] + COc1cccc2c1C(=O)c1c(O)c3c(c(O)c1C2=O)C[C@@](O)(C(=O)CO)C[C@@H]3O[C@H]1C[C@H](N)[C@H](O)[C@H](C)O1 [Doxorubicin]
Conditions	fitness
[1], first compound 1 µg/mL, partner 0.25 µg/mL	0.86
[1], first compound 1 µg/mL, partner 0.5 µg/mL	0.876
[1], first compound 1 µg/mL, partner 1 µg/mL	0.669
[1], first compound 2 µg/mL, partner 0.25 µg/mL	0.936
[1], first compound 2 µg/mL, partner 0.5 µg/mL	0.875
[1], first compound 2 µg/mL, partner 1 µg/mL	0.721
[1], first compound 4 µg/mL, partner 1 µg/mL	0.686
[2], first compound 0.125 µg/mL, partner 0.625 µg/mL	0.867
[2], first compound 0.125 µg/mL, partner 1.25 µg/mL	0.865
[2], first compound 0.125 µg/mL, partner 2.5 µg/mL	0.739
[2], first compound 0.25 µg/mL, partner 0.625 µg/mL	0.869
[2], first compound 0.25 µg/mL, partner 1.25 µg/mL	0.851
[2], first compound 0.25 µg/mL, partner 2.5 µg/mL	0.748
[2], first compound 0.5 µg/mL, partner 0.625 µg/mL	0.829
[2], first compound 0.5 µg/mL, partner 1.25 µg/mL	0.834
[2], first compound 0.5 µg/mL, partner 2.5 µg/mL	0.755
[3], first compound 0.5 µg/mL, partner 0.625 µg/mL	0.91
[3], first compound 0.5 µg/mL, partner 1.25 µg/mL	0.935
[3], first compound 0.5 µg/mL, partner 2.5 µg/mL	0.829
[3], first compound 1 µg/mL, partner 0.625 µg/mL	0.887
[3], first compound 1 µg/mL, partner 1.25 µg/mL	0.961
[3], first compound 1 µg/mL, partner 2.5 µg/mL	0.852
[3], first compound 2 µg/mL, partner 0.625 µg/mL	0.926
[3], first compound 2 µg/mL, partner 1.25 µg/mL	0.914
[3], first compound 2 µg/mL, partner 2.5 µg/mL	0.841
[4], first compound 0.125 µg/mL, partner 0.625 µg/mL	0.93
[4], first compound 0.125 µg/mL, partner 1.25 µg/mL	0.905
[4], first compound 0.125 µg/mL, partner 2.5 µg/mL	0.628
[4], first compound 0.25 µg/mL, partner 0.625 µg/mL	0.93
[4], first compound 0.25 µg/mL, partner 1.25 µg/mL	0.911
[4], first compound 0.5 µg/mL, partner 0.625 µg/mL	0.84

[4], first compound 1 µg/mL, one replicate
Conditions	fitness
partner 0.625 µg/mL	0.783
partner 1.25 µg/mL	0.645
partner 2.5 µg/mL	0.197

Conditions	Bliss interaction score
[5]	0.0772
[6]	-0.0594
[7]	0.0493
[8]	0.0744
